According to ChEMBL document CHEMBL1909046, “DrugMatrix in vitro pharmacology data”:

What was measured:
Endothelin-1 receptor = molecular target: T1, Endothelin-1 receptor (Homo sapiens, UniProt P25101); type: cell membranes, Membrane; settings: cho-k1; also: in other assays of this panel Not Active means under 50% inhibition at 10 µM
T1 sequence (P25101 whole entry): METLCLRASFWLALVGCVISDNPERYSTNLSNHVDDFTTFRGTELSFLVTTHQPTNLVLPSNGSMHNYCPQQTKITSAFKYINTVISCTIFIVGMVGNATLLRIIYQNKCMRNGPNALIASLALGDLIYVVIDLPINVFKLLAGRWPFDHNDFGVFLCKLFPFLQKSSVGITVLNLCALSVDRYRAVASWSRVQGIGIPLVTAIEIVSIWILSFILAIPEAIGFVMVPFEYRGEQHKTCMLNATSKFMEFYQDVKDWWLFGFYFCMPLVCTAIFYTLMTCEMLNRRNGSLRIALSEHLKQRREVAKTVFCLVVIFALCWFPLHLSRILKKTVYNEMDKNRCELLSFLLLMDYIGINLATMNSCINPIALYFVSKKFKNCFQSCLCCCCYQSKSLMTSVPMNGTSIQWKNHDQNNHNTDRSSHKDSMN

[1] = DRUGMATRIX: Atrial Natriuretic Factor (ANF) radioligand binding (ligand: [125I] ANF (rat)); type: cell membranes, Cavia porcellus, Dunkin-Hartley, Adrenal gland, Membrane; settings: Not Active = under 50% inhibition at 10 µM
[2] = DRUGMATRIX: ATPase, Na+/K+ enzyme inhibition (substrate: ATP); type: tissue-based, Sus scrofa, Heart; settings: Not Active = under 50% inhibition at 10 µM
[3] = molecular target: Delta-type opioid receptor (Homo sapiens, UniProt P41143); type: cell membranes, Membrane; settings: hek293; also: in other assays of this panel Not Active means under 50% inhibition at 10 µM
Sequence of Delta-type opioid receptor (P41143 whole entry): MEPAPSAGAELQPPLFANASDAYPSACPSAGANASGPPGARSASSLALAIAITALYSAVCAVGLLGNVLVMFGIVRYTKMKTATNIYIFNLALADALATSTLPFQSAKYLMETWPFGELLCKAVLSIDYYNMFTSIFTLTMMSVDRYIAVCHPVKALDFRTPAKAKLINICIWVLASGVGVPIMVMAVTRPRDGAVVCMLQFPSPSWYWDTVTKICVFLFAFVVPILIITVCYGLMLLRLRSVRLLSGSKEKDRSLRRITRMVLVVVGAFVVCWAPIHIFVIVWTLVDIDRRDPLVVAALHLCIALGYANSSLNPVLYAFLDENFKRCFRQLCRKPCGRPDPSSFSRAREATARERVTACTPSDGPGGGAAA

Melanocortin receptor 5 = Melanocortin receptor 5 (Homo sapiens, UniProt P33032); type: cell membranes, HEK293, Membrane; settings: hek293; also: in other assays of this panel Not Active means under 50% inhibition at 10 µM
Sequence of Melanocortin receptor 5 (P33032 whole entry): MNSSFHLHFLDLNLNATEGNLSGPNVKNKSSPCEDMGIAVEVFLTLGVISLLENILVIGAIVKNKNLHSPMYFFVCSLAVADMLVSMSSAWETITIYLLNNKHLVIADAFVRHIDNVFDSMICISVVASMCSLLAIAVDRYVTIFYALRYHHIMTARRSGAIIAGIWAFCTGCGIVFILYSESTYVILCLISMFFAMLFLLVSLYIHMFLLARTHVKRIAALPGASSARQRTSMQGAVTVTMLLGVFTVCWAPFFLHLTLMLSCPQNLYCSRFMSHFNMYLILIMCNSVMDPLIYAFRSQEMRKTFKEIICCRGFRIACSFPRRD

Glycine receptor = Glycine receptor (Rattus norvegicus, UniProt P22771+P24524+P07727+P20781); type: cell membranes, Wistar, Spinal cord, Membrane; also: in other assays of this panel Not Active means under 50% inhibition at 10 µM

Compound | IC50 (Endothelin-1 receptor) | IC50 [1] | Ki [1] | IC50 [2] | Ki [2] | IC50 [3] | IC50 (Melanocortin receptor 5) | IC50 (Glycine receptor) | IC50 ([2]; read-out: IC50) | IC50 (Endothelin-1 receptor; read-out: IC50) | Ki (Endothelin-1 receptor; read-out: Ki) | Ki [3] | IC50 (Melanocortin receptor 5; read-out: IC50) | Ki (Melanocortin receptor 5; read-out: Ki) | Ki (Glycine receptor) | Ki (Endothelin-1 receptor) | Ki (Melanocortin receptor 5)
CC(=O)[C@@]1(O)CC[C@H]2[C@@H]3CCC4=CC(=O)CC[C@]4(C)[C@H]3CC[C@@]21C [HYDROXYPROGESTERONE] | Not Active | Not Active | Not Active | Not Active | Not Active | Not Active | Not Active | Not Active | – | – | – | – | – | – | – | – | –
Oc1c(Cl)cc(Cl)c(Cl)c1Cc1c(O)c(Cl)cc(Cl)c1Cl [HEXACHLOROPHENE] | Not Active | Not Active | Not Active | – | – | Not Active | Not Active | Not Active | 6130 nM | – | – | – | – | – | – | – | –
COC1=C(OC)C(=O)C(CCCCCCCCCCO)=C(C)C1=O [IDEBENONE] | Not Active | Not Active | Not Active | Not Active | Not Active | Not Active | Not Active | Not Active | – | – | – | – | – | – | – | – | –
C[C@]12C=CC(=O)C=C1CC[C@@H]1[C@@H]2[C@@H](O)C[C@@]2(C)[C@H]1CC[C@]2(O)C(=O)CO [PREDNISOLONE] | Not Active | Not Active | Not Active | Not Active | Not Active | Not Active | Not Active | Not Active | – | – | – | – | – | – | – | – | –
O=C1O[C@H]([C@@H](O)CO)C(O)=C1O [ASCORBIC ACID] | Not Active | Not Active | Not Active | Not Active | Not Active | Not Active | Not Active | Not Active | – | – | – | – | – | – | – | – | –
COc1ccc(C2C(=O)c3ccccc3C2=O)cc1 [ANISINDIONE] | Not Active | Not Active | Not Active | Not Active | Not Active | Not Active | Not Active | Not Active | – | – | – | – | – | – | – | – | –
Brc1c(NC2=NCCN2)ccc2nccnc12 [BRIMONIDINE] | Not Active | Not Active | Not Active | Not Active | Not Active | Not Active | Not Active | Not Active | – | – | – | – | – | – | – | – | –
COc1ccc(C(=O)N2CCCC2=O)cc1 | Not Active | Not Active | Not Active | Not Active | Not Active | Not Active | Not Active | Not Active | – | – | – | – | – | – | – | – | –
C[C@@H]1C[C@H]2[C@@H]3CCC4=CC(=O)C=C[C@]4(C)[C@@]3(F)[C@@H](O)C[C@]2(C)[C@@]1(O)C(=O)CO [DEXAMETHASONE] | Not Active | Not Active | Not Active | Not Active | Not Active | Not Active | Not Active | Not Active | – | – | – | – | – | – | – | – | –
O=C(c1ccccc1C(F)(F)F)N1CCC(Cc2ccccc2)CC1 | Not Active | Not Active | Not Active | Not Active | Not Active | Not Active | Not Active | Not Active | – | – | – | – | – | – | – | – | –
CCC1(C)CC(=O)NC1=O (stereo not given) [ETHOSUXIMIDE] | Not Active | Not Active | Not Active | Not Active | Not Active | Not Active | Not Active | Not Active | – | – | – | – | – | – | – | – | –
GRAMICIDIN | – | Not Active | Not Active | – | – | Not Active | – | Not Active | 5140 nM | 2980 nM | 1840 nM | Not Active | 2010 nM | 1890 nM | Not Active | – | –
OC(CCCN1CCCCC1)(c1ccccc1)c1ccccc1 [DIPHENIDOL] | Not Active | Not Active | Not Active | Not Active | Not Active | Not Active | Not Active | Not Active | – | – | – | – | – | – | – | – | –
CCC(=O)O[C@]1(C(=O)CCl)[C@@H](C)C[C@H]2[C@@H]3CCC4=CC(=O)C=C[C@]4(C)[C@@]3(F)[C@@H](O)C[C@@]21C [CLOBETASOL PROPIONATE] | Not Active | Not Active | Not Active | Not Active | Not Active | Not Active | Not Active | Not Active | – | – | – | – | – | – | – | – | –
Cc1c(OCC(F)(F)F)ccnc1C[S+]([O-])c1nc2ccccc2[nH]1 (stereo not given) [LANSOPRAZOLE] | Not Active | Not Active | Not Active | Not Active | Not Active | Not Active | Not Active | Not Active | – | – | – | – | – | – | – | – | –
CCCOc1ccc(C(=O)OCCN(CC)CC)cc1N [PROPARACAINE] | Not Active | Not Active | Not Active | Not Active | Not Active | Not Active | Not Active | Not Active | – | – | – | – | – | – | – | – | –
CC(=O)[C@H]1[C@H](C#N)C[C@H]2[C@@H]3CC=C4C[C@@H](O)CC[C@]4(C)[C@H]3CC[C@@]21C [PREGNENOLONE CARBONITRILE] | Not Active | Not Active | Not Active | Not Active | Not Active | Not Active | Not Active | Not Active | – | – | – | – | – | – | – | – | –
CN(C)CC[C@@H](c1ccc(Cl)cc1)c1ccccn1 [DEXCHLORPHENIRAMINE] | Not Active | Not Active | Not Active | Not Active | Not Active | Not Active | Not Active | Not Active | – | – | – | – | – | – | – | – | –
C[C@@H]1O[C@@H](O[C@@H]2C=C3CC[C@@H]4[C@H](CC[C@]5(C)[C@@H](c6ccc(=O)oc6)CC[C@]45O)[C@@]3(C)CC2)[C@H](O)[C@H](O)[C@H]1O [PROSCILLARIDIN] | Not Active | Not Active | Not Active | – | – | Not Active | Not Active | Not Active | 88 nM | – | – | – | – | – | – | – | –
CN(C)[C@@H]1C(O)=C(C(N)=O)C(=O)[C@@]2(O)C(O)=C3C(=O)c4c(O)ccc(Cl)c4[C@@](C)(O)[C@H]3C[C@@H]12 [CHLORTETRACYCLINE] | Not Active | Not Active | Not Active | Not Active | Not Active | Not Active | Not Active | Not Active | – | – | – | – | – | – | – | – | –
Nc1ccn([C@@H]2O[C@H](CO)[C@@H](O)[C@@H]2O)c(=O)n1 [CYTARABINE] | Not Active | Not Active | Not Active | Not Active | Not Active | Not Active | Not Active | Not Active | – | – | – | – | – | – | – | – | –
CC(C)c1cccc(C(C)C)c1O [PROPOFOL] | Not Active | Not Active | Not Active | Not Active | Not Active | Not Active | Not Active | Not Active | – | – | – | – | – | – | – | – | –
NYSTATIN | Not Active | Not Active | Not Active | Not Active | Not Active | Not Active | Not Active | Not Active | – | – | – | Not Active | – | – | Not Active | Not Active | Not Active
Cc1cc2c(OCC(CNC(C)(C)C)OC(=O)c3ccccc3)cccc2[nH]1 (stereo not given) [BOPINDOLOL] | Not Active | Not Active | Not Active | Not Active | Not Active | Not Active | Not Active | Not Active | – | – | – | – | – | – | – | – | –
CC(=O)Oc1ccc(C(c2ccc(OC(C)=O)cc2)c2ccccn2)cc1 [BISACODYL] | Not Active | Not Active | Not Active | Not Active | Not Active | Not Active | Not Active | Not Active | – | – | – | – | – | – | – | – | –
